# Data: patent US6900181B2, “Pharmaceutical composition” (Renovo Limited, priority 1995, dated 2005)
# Key:
# [1] = tested on: linear full thickness incisions on the dorsal skin; assay: Rat full thickness incisional wound healing and scarring model, intradermal injection to the wound margins; type: in vivo, Sprague Dawley rats; details: for scarring / dermal architecture (histology): 80 days post wounding; for effect on wound healing (histological analysis): 10, 20, 40 mM at wounding and daily for following seven days, compared with PBS controls; for immunocytochemical analysis (fibronectin staining, monocyte/macrophage profiles): vs PBS controls; for histological analysis: 40 days post wounding
# Description: Adult male Sprague Dawley rats (200-250 g) were anaesthetised using equal parts halothane, nitrous oxide and oxygen. Four linear full thickness incisions, 1 cm in length to the depth of the panniculus carnosus were made on the dorsal skin, 1 cm from the midline and 5 and 8 cm from the base of the skull. The wounds were left unsutured to heal by secondary intention. Experimental treatments were administered by intradermal injection to the wound margins (50 μl down each wound margin). At selected time points animals were killed by chloroform overdose. Wounds were excised from the surrounding tissue and bisected. Half the wounds were rapidly frozen in OCT for cryosection and immunoctyochemistry and half fixed in formaldehyde for wax embedding and histology. Wax sections were routinely stained with haematoxylin and eosin, picrosirius red and Massons Lille trichrome, to display collagen fibre thickness, density and orientation to enable assessment of scar quality. […] A range of doses (10 mM, 20 mM and 40 mM) was studied for each sugar, with PBS (phosphate buffered saline) as a control. Treatments were administered at the time of wounding and each day for the following seven days. Two animals per dose were studied at each of the three time points (7, 40 and 80 days post wounding) for each compound. […]. […] Treatments were administered at the time of wounding and each day for the following two days. One animal per dose was studied at each of the two time points (7 and 80 days post wounding). Total n=4. […] Department of Pharmacy, University of Manchester. A single concentration (20 mM) of this compound was studied, with PBS as a control. The time of administration varied to the previous experiments. Animals were split into three groups and treated on day 0 alone, days 0, 2 and 4, or days 0 to 7 inclusive. Two animals per treatment regime were studied at each of the three time points (3, 7 and 80 days) Total n=18.
# wounds = assay: Experimental work treating wounds with other sugars; type: in vivo; details: for effect on wound healing: compared with controls; for effect on scarring: in vivo
# Text: Galactose-6-phosphate and glycerol-3-phosphate have no effect upon either wound healing or scarring.
# [2] = target: M6P/IGF II (insulin-like growth factor II) receptor (Homo sapiens, UniProt P11717); assay: ELISA-type assay using purified M6P/IGF II receptor; type: binding; details: initial results; compared with M6P
# M6P/IGF II (insulin-like growth factor II) receptor, sequence (P11717 41-2491): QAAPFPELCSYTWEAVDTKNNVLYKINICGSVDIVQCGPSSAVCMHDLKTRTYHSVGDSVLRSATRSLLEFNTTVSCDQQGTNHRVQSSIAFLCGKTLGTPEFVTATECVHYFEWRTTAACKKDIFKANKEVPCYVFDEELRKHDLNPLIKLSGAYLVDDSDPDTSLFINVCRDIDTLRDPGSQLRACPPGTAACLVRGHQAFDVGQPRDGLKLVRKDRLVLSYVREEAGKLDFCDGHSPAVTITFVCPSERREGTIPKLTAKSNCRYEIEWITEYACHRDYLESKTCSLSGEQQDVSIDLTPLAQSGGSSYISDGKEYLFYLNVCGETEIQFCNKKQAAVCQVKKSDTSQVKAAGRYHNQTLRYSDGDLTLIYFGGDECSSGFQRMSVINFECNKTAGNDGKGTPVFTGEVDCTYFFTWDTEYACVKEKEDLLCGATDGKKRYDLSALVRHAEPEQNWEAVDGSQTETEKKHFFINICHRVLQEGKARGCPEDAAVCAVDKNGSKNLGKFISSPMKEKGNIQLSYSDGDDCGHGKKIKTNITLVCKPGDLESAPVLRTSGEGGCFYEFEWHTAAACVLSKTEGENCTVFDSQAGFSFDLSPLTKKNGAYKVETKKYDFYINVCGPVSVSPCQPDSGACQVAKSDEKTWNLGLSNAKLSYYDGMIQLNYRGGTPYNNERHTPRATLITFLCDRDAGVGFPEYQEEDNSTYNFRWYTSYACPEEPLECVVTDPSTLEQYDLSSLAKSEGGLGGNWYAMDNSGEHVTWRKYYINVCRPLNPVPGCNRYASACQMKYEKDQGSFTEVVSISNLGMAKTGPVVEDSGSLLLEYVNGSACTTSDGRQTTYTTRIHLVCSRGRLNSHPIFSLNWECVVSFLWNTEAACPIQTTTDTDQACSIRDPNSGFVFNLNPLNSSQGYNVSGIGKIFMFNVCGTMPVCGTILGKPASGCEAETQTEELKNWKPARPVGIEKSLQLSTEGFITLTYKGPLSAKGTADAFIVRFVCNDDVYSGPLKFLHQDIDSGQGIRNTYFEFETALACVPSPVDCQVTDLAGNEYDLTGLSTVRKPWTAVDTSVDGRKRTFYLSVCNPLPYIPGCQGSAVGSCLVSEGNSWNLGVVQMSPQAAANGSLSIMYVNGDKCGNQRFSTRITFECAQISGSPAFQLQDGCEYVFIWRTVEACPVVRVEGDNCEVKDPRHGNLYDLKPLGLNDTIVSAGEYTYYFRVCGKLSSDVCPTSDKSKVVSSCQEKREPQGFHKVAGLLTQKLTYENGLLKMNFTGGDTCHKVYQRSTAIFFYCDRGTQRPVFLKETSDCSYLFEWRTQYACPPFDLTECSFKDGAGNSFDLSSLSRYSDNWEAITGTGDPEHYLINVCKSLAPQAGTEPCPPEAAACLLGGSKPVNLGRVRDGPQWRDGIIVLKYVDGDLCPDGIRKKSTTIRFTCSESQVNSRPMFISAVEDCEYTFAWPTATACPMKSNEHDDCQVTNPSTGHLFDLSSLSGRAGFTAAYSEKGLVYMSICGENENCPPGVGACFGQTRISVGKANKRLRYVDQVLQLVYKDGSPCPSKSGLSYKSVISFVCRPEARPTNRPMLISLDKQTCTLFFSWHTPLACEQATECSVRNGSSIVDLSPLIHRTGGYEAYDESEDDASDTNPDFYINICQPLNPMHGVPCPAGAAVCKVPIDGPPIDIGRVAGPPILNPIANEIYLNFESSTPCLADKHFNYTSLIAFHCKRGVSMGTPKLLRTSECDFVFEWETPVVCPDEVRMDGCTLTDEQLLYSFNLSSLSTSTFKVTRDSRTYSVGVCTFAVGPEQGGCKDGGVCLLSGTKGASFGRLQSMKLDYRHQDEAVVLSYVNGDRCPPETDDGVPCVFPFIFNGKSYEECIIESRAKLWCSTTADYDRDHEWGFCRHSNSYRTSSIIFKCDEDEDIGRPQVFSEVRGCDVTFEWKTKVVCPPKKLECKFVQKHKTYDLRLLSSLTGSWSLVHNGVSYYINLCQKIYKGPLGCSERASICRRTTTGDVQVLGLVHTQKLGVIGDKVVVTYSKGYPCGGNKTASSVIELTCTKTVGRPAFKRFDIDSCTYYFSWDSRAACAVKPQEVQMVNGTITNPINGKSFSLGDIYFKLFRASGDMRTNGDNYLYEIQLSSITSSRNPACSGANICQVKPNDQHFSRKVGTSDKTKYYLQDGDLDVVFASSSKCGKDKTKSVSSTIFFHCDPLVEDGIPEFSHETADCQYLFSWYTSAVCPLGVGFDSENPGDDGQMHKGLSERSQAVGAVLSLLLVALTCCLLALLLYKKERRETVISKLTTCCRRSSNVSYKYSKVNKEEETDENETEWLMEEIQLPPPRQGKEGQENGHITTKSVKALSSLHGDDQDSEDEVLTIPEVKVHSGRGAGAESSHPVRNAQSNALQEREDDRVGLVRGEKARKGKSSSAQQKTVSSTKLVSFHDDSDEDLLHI
# Text: In addition to the animal studies an ELISA-type assay using purified M6P/IGF II (insulin-like growth factor II) receptor was developed to determine if these analogues of M6P bind to the M6P/IGF II receptor.
# [3] = 7 days post wounding, 10, 20, 40 mM
# [4] = 10, 20, 40 mM, F1P effect particularly at 40 mM
SMILES,effect on wound healing (histological analysis) ([1]; 7 days post wounding),"immunocytochemical analysis (fibronectin staining, monocyte/macrophage profiles) [1, 3]","histological analysis ([1]; 10, 20, 40 mM)","scarring / dermal architecture (histology) [1, 4]",effect on wound healing (wounds),effect on scarring (wounds),also measured
"O=C[C@@H](O)[C@@H](O)[C@H](O)[C@H](O)COP(=O)(O)O [M6P, mannose-6-phosphate]",–,–,–,–,–,–,"histological analysis of treated wounds vs PBS controls ([1]; 7 days post wounding, 10 or 20 mM, or 10 mM + 10 mM M6P, at wounding and each day for following two days): none of the treated wounds appeared different to PBS controls; scarring / dermal architecture (histology) ([1]; 10 or 20 mM, or 10 mM + 10 mM M6P, at wounding and each day for following two days, vs controls): improvement in scarring"
"O=C(COP(=O)(O)O)[C@@H](O)[C@H](O)[C@H](O)CO [F1P, fructose-1-phosphate]",neither F1P or Malt1P had any effect on wound healing,treated wounds resembled controls,"inconsistent, with no clear trend",reduce scarring more significantly,–,–,–
O=P(O)(O)OCC(O)CO (stereo not drawn) [glycerol-3-phosphate],–,–,–,–,no effect,no effect,–
"O=P(O)(O)O[C@H]1O[C@H](CO)[C@@H](O[C@H]2O[C@H](CO)[C@@H](O)[C@H](O)[C@H]2O)[C@H](O)[C@H]1O [Malt1P, maltose-1-phosphate]",neither F1P or Malt1P had any effect on wound healing,treated wounds resembled controls,"inconsistent, with no clear trend",improve the dermal architecture very slightly,–,–,binding to the M6P/IGF II receptor [2]: does not bind
O=C[C@H](O)[C@@H](O)[C@@H](O)[C@H](O)COP(=O)(O)O [Galactose-6-phosphate],–,–,–,–,no effect,no effect,–
